ChEMBL document CHEMBL3885881, “DrugMatrix”

Species on record: Rattus norvegicus
Assay: DrugMatrix - Regimen: Daily Repeat
Type: toxicity, organism-based, Sprague-Dawley
Design: regimen Daily Repeat, gender Male, age 6-8 weeks
Conditions: in vivo, po, route oral GAVAGE, […]; for ABSOLUTE BASOPHIL / ABSOLUTE EOSINOPHIL / ABSOLUTE LYMPHOCYTE / ABSOLUTE MONOCYTE / ABSOLUTE SEGMENTED NEUTROPHIL / BASOPHIL / EOSINOPHIL / ERYTHROCYTE COUNT / HEMATOCRIT / HEMOGLOBIN / LEUKOCYTE COUNT / LYMPHOCYTE / MEAN CORPUSCULAR HEMOGLOBIN / MEAN CORPUSCULAR HEMOGLOBIN CONCENTRATION / MEAN CORPUSCULAR VOLUME / MONOCYTE / NEUTROPHIL / NUCLEATED RED BLOOD CELLS / PLATELET COUNT: tissue Blood; for ALANINE AMINOTRANSFERASE / ALBUMIN / ALKALINE PHOSPHATASE / ASPARTATE AMINOTRANSFERASE / BLOOD UREA NITROGEN / CARBON DIOXIDE / CHLORIDE / CHOLESTEROL / CREATINE PHOSPHOKINASE / CREATININE / GLUCOSE / LACTATE DEHYDROGENASE / LIPASE / PHOSPHORUS / POTASSIUM / SODIUM / TOTAL BILIRUBIN / TOTAL PROTEIN / URIC ACID: tissue Plasma
[1] = 0 mg/kg, 72 h, dose level Control, time 3 day
[2] = 0 mg/kg, 120 h, dose level Control, time 5 day
[3] = 0.05 mg/kg, 72 h, dose level Low, time 3 day

COCc1c(C(C)C)nc(C(C)C)c(/C=C/[C@@H](O)C[C@@H](O)CC(=O)O)c1-c1ccc(F)cc1 [CERIVASTATIN]
ABSOLUTE BASOPHIL [1]: 0 CELLS/uL | ABSOLUTE EOSINOPHIL [1]: 0 CELLS/uL | ABSOLUTE LYMPHOCYTE [1]: 11091.17 CELLS/uL | ABSOLUTE MONOCYTE [1]: 172.17 CELLS/uL | ABSOLUTE SEGMENTED NEUTROPHIL [1]: 1186.67 CELLS/uL | BASOPHIL [1]: 0% | EOSINOPHIL [1]: 0% | ERYTHROCYTE COUNT [1]: 5.87 x10E6/uL | HEMATOCRIT [1]: 36.87% | HEMOGLOBIN [1]: 14.03 G/DL | LEUKOCYTE COUNT [1]: 12.45 x10E3/uL | LYMPHOCYTE [1]: 88.67% | MEAN CORPUSCULAR HEMOGLOBIN [1]: 23.93 pg | MEAN CORPUSCULAR HEMOGLOBIN CONCENTRATION [1]: 38.1 G/DL | MEAN CORPUSCULAR VOLUME [1]: 62.73 fL | MONOCYTE [1]: 1.5% | NEUTROPHIL [1]: 9.83% | NUCLEATED RED BLOOD CELLS [1]: 0 /100WBC | PLATELET COUNT [1]: 1150.33 x10E3/uL | ALANINE AMINOTRANSFERASE [1]: 67.17 u/L | ALBUMIN [1]: 4.03 G/DL | ALKALINE PHOSPHATASE [1]: 462.5 u/L | ASPARTATE AMINOTRANSFERASE [1]: 88 u/L | BLOOD UREA NITROGEN [1]: 13.17 mg/dL | CARBON DIOXIDE [1]: 29.33 mmol/L | CHLORIDE [1]: 101 MEQ/L | CHOLESTEROL [1]: 69.17 mg/dL | CREATINE PHOSPHOKINASE [1]: 292.5 u/L | CREATININE [1]: 0.17 mg/dL | GLUCOSE [1]: 167.5 mg/dL | LACTATE DEHYDROGENASE [1]: 198.5 u/L | LIPASE [1]: 10.67 u/L | PHOSPHORUS [1]: 11.73 mg/dL | POTASSIUM [1]: 5.91 MEQ/L | SODIUM [1]: 143.3 MEQ/L | TOTAL BILIRUBIN [1]: 0.18 mg/dL | TOTAL PROTEIN [1]: 5.7 G/DL | URIC ACID [1]: 1.3 mg/dL | ABSOLUTE BASOPHIL [2]: 0 CELLS/uL | ABSOLUTE EOSINOPHIL [2]: 64.33 CELLS/uL | ABSOLUTE LYMPHOCYTE [2]: 12494.67 CELLS/uL | ABSOLUTE MONOCYTE [2]: 117 CELLS/uL | ABSOLUTE SEGMENTED NEUTROPHIL [2]: 1340.67 CELLS/uL | BASOPHIL [2]: 0% | EOSINOPHIL [2]: 0.33% | ERYTHROCYTE COUNT [2]: 5.82 x10E6/uL | HEMATOCRIT [2]: 36.97% | HEMOGLOBIN [2]: 14.18 G/DL | LEUKOCYTE COUNT [2]: 14.02 x10E3/uL | LYMPHOCYTE [2]: 89% | MEAN CORPUSCULAR HEMOGLOBIN [2]: 24.42 pg | MEAN CORPUSCULAR HEMOGLOBIN CONCENTRATION [2]: 38.4 G/DL | MEAN CORPUSCULAR VOLUME [2]: 63.52 fL | MONOCYTE [2]: 0.83% | NEUTROPHIL [2]: 9.83% | NUCLEATED RED BLOOD CELLS [2]: 0 /100WBC | PLATELET COUNT [2]: 1097.83 x10E3/uL | ALANINE AMINOTRANSFERASE [2]: 58.83 u/L | ALBUMIN [2]: 3.92 G/DL | ALKALINE PHOSPHATASE [2]: 414.17 u/L | ASPARTATE AMINOTRANSFERASE [2]: 89.17 u/L | BLOOD UREA NITROGEN [2]: 16.83 mg/dL | CARBON DIOXIDE [2]: 29.17 mmol/L | CHLORIDE [2]: 100.33 MEQ/L | CHOLESTEROL [2]: 54.5 mg/dL | CREATINE PHOSPHOKINASE [2]: 386.17 u/L | CREATININE [2]: 0.23 mg/dL | GLUCOSE [2]: 184.17 mg/dL | LACTATE DEHYDROGENASE [2]: 229.17 u/L | LIPASE [2]: 10.83 u/L | PHOSPHORUS [2]: 10.88 mg/dL | POTASSIUM [2]: 5.97 MEQ/L | SODIUM [2]: 142.2 MEQ/L | TOTAL BILIRUBIN [2]: 0.12 mg/dL | TOTAL PROTEIN [2]: 5.63 G/DL | URIC ACID [2]: 1.55 mg/dL | ABSOLUTE BASOPHIL [3]: 0 CELLS/uL | ABSOLUTE EOSINOPHIL [3]: 0 CELLS/uL | ABSOLUTE LYMPHOCYTE [3]: 11310.33 CELLS/uL | ABSOLUTE MONOCYTE [3]: 175.33 CELLS/uL | ABSOLUTE SEGMENTED NEUTROPHIL [3]: 1347.67 CELLS/uL | BASOPHIL [3]: 0% | EOSINOPHIL [3]: 0% | ERYTHROCYTE COUNT [3]: 5.68 x10E6/uL | HEMATOCRIT [3]: 35.3% | HEMOGLOBIN [3]: 13.6 G/DL | LEUKOCYTE COUNT [3]: 12.83 x10E3/uL | LYMPHOCYTE [3]: 88.33% | MEAN CORPUSCULAR HEMOGLOBIN [3]: 23.97 pg | MEAN CORPUSCULAR HEMOGLOBIN CONCENTRATION [3]: 38.53 G/DL | MEAN CORPUSCULAR VOLUME [3]: 62.17 fL | MONOCYTE [3]: 1.33% | NEUTROPHIL [3]: 10.33% | NUCLEATED RED BLOOD CELLS [3]: 0 /100WBC | PLATELET COUNT [3]: 1230 x10E3/uL | ALANINE AMINOTRANSFERASE [3]: 65 u/L | ALBUMIN [3]: 4.07 G/DL | ALKALINE PHOSPHATASE [3]: 429 u/L | ASPARTATE AMINOTRANSFERASE [3]: 96.67 u/L | BLOOD UREA NITROGEN [3]: 15.67 mg/dL | CARBON DIOXIDE [3]: 25 mmol/L | CHLORIDE [3]: 103 MEQ/L | CHOLESTEROL [3]: 64 mg/dL | CREATINE PHOSPHOKINASE [3]: 269.33 u/L | CREATININE [3]: 0.13 mg/dL | GLUCOSE [3]: 169.67 mg/dL | LACTATE DEHYDROGENASE [3]: 270.33 u/L | LIPASE [3]: 10 u/L | PHOSPHORUS [3]: 12.17 mg/dL | POTASSIUM [3]: 6.2 MEQ/L | SODIUM [3]: 144.27 MEQ/L | TOTAL BILIRUBIN [3]: 0.13 mg/dL | TOTAL PROTEIN [3]: 5.63 G/DL | URIC ACID [3]: 1.9 mg/dL
